Article PMC5514153, “Targeting PTPRZ inhibits stem cell-like properties and tumorigenicity in glioblastoma cells” (Scientific Reports, 2017)

What was measured:
[1] = not told; cited from earlier work
[2] = system: PTPRZ and PTPRG V-to-F substitution mutants; test: Sensitivity of V-to-F mutants to competitive inhibitors; type: biochemical, human; conditions: SCB4380 10 µM, vanadate 200 µM; on average
Experimental: For determination of IC50 values, Lineweaver-Burk plot, and inhibitor sensitivity assays, recombinant PTP proteins were preincubated with a dilution series of the compound in assay buffer (100 mM acetate, 50 mM Tris, and 50 mM Bis-Tris, pH 6.5 containing 100 μg/ml BSA, 5 mM DTT, and 0.01% Brij-35) for 1 h, and the enzyme-inhibitor mixture was added to an equal volume of 40 μM DiFMUP (6,8-difluoro-4-methylumbiliferyl phosphate, #D6567, Thermo Fisher Scientific) solution to initiate the reaction. The hydrolysis of DiFMUP was continuously monitored as an increase in fluorescence at 455 nm (excitation at 358 nm) for ~100 s using a spectrofluorometer (FI-4500, Hitachi) at room temperature. The slope of the fluorescence signal was defined as catalytic activity. IC50 values were calculated by the conventional linear interpolation method. We examined preincubation effect, reversibility, and time dependence of PTP inhibition by NAZ2329 as described in the figure legends.
Le ge nds to Supple me ntary Figure s
Supplementary Figure S1. Aberrant expressions of core transcription factors in Ptprz-knockdown glioblastoma cells. (A) Western using antibodies against SOX2, OLIG2, POU3F2, and SALL2. […] SALL2 proteins were not detected in C6 or U251 cells. […]
positions corresponding to Val-1911 of PTPRZ1 are colored in blue and red, respectively. […] Data were analyzed as […]

[3] = target: T1, human PTPRZ1 (whole intracellular region, D1+D2) (Homo sapiens, UniProt P23471); test: In vitro PTPase assay (DiFMUP), PTPRZ1 whole intracellular region; type: biochemical
T1 construct: Recombinant proteins corresponding to the entire intracellular regions (ICRs) of PTPRZ1, PTPRA, and PTPRM; made in house; host or cells: baculovirus-silkworm expression system
T1 sequence (P23471 1663-2315 limits assumed): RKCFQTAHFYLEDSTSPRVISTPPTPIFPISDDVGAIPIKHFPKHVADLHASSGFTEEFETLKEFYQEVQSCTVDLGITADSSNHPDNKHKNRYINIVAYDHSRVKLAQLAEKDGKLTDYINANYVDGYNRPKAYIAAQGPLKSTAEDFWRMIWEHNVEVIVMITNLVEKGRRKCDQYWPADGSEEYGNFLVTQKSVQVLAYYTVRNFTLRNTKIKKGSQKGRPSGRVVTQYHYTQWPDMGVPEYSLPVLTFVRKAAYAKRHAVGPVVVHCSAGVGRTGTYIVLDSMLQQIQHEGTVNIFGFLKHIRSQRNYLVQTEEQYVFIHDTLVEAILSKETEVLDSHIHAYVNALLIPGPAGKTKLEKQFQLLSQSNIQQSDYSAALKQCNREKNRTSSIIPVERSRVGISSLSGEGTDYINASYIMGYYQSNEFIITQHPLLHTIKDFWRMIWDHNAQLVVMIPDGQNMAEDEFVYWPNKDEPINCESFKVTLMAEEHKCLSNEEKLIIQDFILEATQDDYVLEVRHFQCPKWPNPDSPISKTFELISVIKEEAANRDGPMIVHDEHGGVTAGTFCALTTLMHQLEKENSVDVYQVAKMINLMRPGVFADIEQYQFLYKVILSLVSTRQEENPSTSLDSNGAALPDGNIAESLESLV
Experimental: Figure 4 NAZ2329, an allosteric inhibitor of R5 RPTP subfamily members. (A) Structure of NAZ2329. (B) Effect of preincubation of NAZ2329 on its inhibitory activity against PTPRZ. Recombinant human PTPRZ1 enzyme (the whole intracellular region) was premixed with NAZ2329 for the indicated times and followed by addition of a fluorogenic DiFMUP (non-specific PTP substrate, 6,8-difluoro-4-methylumbiliferyl phosphate) to measure PTP inhibitory activity. (C) Time dependence. The PTPRZ1 enzyme was added to the inhibitor–substrate mixture, and the inhibitory activity was determined at each time point relative to the vehicle control. (D) Reversibility of inhibition. PTPRZ1 enzymes were preincubated with NAZ2329 at the indicated concentrations for 30 min. The mixture was then 20-fold diluted, and recovered PTP activity was expressed as the relative activity compared with the vehicle-treated enzyme. (E) Lineweaver-Burk plot analysis. PTPRZ1 enzymes were preincubated with NAZ2329 for 60 min, and the PTP activity was measured using DiFMUP. (F) Concentration-inhibition curves of NAZ2329 for representative PTP members, including human PTPRZ and PTPRG (another R5 RPTP subfamily member), human PTPRS (R2A subfamily), human PTPRM (R2B subfamily), mouse PTPRB (R3 subfamily), human PTPRA (R4 subfamily), human PTPN1 (non-transmembrane PTP, NT1 subfamily), and human PTPN6 (NT2 subfamily), were generated. Assays were performed using DiFMUP. IC50 values obtained are shown in the inset. Data represent the averages of two or three separate experiments. TEXT PRINTED IN THE PICTURE: (F) NAZ2329: IC50 (μM): hPTPRZ1 7.5; IC50 (μM): hPTPRG 4.8; IC50 (μM): hPTPRA 35.7; IC50 (μM): hPTPRM 56.7; IC50 (μM): hPTPRS 23.7; IC50 (μM): mPTPRB 35.4; IC50 (μM): hPTPN6 15.2; IC50 (μM): hPTPN1 14.5
Recombinant proteins corresponding to the entire intracellular regions (ICRs) of PTPRZ1, PTPRA, and PTPRM were expressed using a baculovirus-silkworm expression system, and purified as described. The ICRs of PTPRG, PTPRS, and PTPRB and the catalytic domains of PTPN1 and PTPN6 were expressed as glutathione-S-transferase (GST) fusion proteins from each pGEX plasmid in Escherichia coli strain BL21 (ref. [6]). GST fusion proteins were purified by glutathione affinity chromatography as described. Chondroitinase ABC (chABC) was purchased from Sigma-Aldrich (catalog #C3667). Anti-PTPRZ-S, rabbit polyclonal antibodies against the extracellular region of PTPRZ was described previously (ref. [44]). The following are the specificities and sources of the commercially available antibodies used in the present study: Anti-RPTPβ (a monoclonal antibody against the intracellular domain of PTPRZ1 receptors, #610179, BD Biosciences), anti-SOX2 (#ab97959, Abcam), anti-POU3F2 (#12137, Cell Signaling), anti-OLIG2 (#AB9610, Millipore), anti-SALL2 (#12679–1-AP, Proteintech Group), anti-GAPDH (#ab9482, Abcam) anti-phosphotyrosine (PY20; #ab16389, Abcam), and anti-pY118-paxillin (#2541, Cell Signaling), mouse anti-paxillin antibody (#610569, BD Bioscience), anti-MBP (#sc-13914, Santa Cruz Biotechnology), and anti-NG2 proteoglycan (#AB5320, Millipore). […]

hPTPRZ1 (D1) = target: T2, hPTPRZ1 (D1) (Homo sapiens, UniProt P23471); test: In vitro PTPase assay (DiFMUP), PTPRZ1 D1 domain; type: biochemical; conditions: first PTP domain fragment
T2 construct: human PTPRZ1-D1 (amino acid residues, 1,698-2,000)
T2 sequence (P23471 1698-2000 limits assumed): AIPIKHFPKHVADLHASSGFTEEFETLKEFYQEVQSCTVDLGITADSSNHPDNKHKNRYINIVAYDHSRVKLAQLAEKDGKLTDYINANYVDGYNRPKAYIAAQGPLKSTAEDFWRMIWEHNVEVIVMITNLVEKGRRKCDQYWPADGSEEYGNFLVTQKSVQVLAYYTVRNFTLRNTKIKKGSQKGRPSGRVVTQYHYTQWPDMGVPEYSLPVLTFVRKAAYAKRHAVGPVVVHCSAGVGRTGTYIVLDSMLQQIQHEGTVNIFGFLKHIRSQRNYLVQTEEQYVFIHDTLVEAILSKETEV

C6 xenograft = test: C6 subcutaneous xenograft nude mouse model; type: in vivo; conditions: nude mice, i.p. twice per week; NAZ2329 45 µmol (22.5 mg)/kg, TMZ 50 mg/kg; vehicle 17 days
Experimental: Figure 10 Antitumor effects of NAZ2329 on the C6 mouse xenograft model. (A) Nude mice were subcutaneously implanted with C6 cells (5 × 10^6 cells), and tumor size was monitored until the criteria were met (>150 mm^3). At this time, mice were randomly divided into 4 treatment groups. DMSO as the vehicle control (n = 7), NAZ2329 (45 µmol (22.5 mg)/kg body weight, n = 9), temozolomide (TMZ, 50 mg/kg, n = 9), and the combination of NAZ2329 (45 µmol/kg) with TMZ (50 mg/kg) (n = 9) were administered intraperitoneally twice per week until the humane endpoint (>3,000 mm^3 tumor size or 40 days after the treatment). Tumor growth in each animal and the number of days required to reach a tumor volume of 3,000 mm^3 are shown in the graph. Five mice were sacrificed due to tumor necrosis (shown by gray symbols in the graph), and two mice unexpectedly died suddenly during the observation period (black symbols in the graph).
Parental or Ptprz-knockdown C6 cells (5 × 10^6 cells) suspended in a volume of 100 µl were subcutaneously injected into the left hind limbs of BALB/c-nu/nu mice (females, 4 weeks old mice were purchased from Japanese Charles River Co. Ltd.). Tumor growth was measured with calipers and calculated by the formula: volume = length × width × width × 0.5, as previously described. The drug treatment initiated when the tumor size reached 150 mm^3. […]

| inhibitory effects on PTPRZ activity ([3]; Supplementary Fig. S2) | IC50 hPTPRZ1 (D1+D2) ([3]; whole intracellular region, DiFMUP, 60-min preincubation) | IC50 hPTPRZ1 (D1) (hPTPRZ1 (D1)) | SMILES | cell permeability [1] | change in sensitivity on V-to-F substitution in PTPRZ and PTPRG [2] | median day for the tumor size to reach 3,000 mm^3 (C6 xenograft) [days] |
| --- | --- | --- | --- | --- | --- | --- |
|  |  |  | O=S(=O)([O-])c1ccc2c(N=Nc3ccc(S(=O)(=O)[O-])c4ccccc34)c(O)c(S(=O)(=O)[O-])cc2c1.[Na+].[Na+].[Na+] [SCB4380] | cell impermeable | ~ 5% |  |
| no significant inhibitory effects | ns | ns | Cn1nnc2c(C(N)=O)ncn2c1=O [temozolomide, reference compound] |  |  | 25 |
|  |  |  | [O]=[V]([O-])([O-])[O-] [vanadate] |  | ~ 5% |  |
